Measurements published in patent US7456172B2, “Succinoylamino benzodiazepines as inhibitors of Aβ protein production” (Bristol-Myers Squibb Pharma Company, priority 1998, dated 2008).
Structures can show the parent of a compound that is named as a salt.

Compound | melting point
C=CC[C@H](C(N)=O)[C@@H](CC(C)C)C(=O)NC1N=C(c2ccccc2)c2cc(OC)ccc2N(C)C1=O (stereo partly shown) | 244 to 255 °C
C=CC[C@H](C(N)=O)[C@@H](CC(C)C)C(=O)NC1N=C(N(C)c2ccccc2)c2ccccc2N(C)C1=O (stereo partly drawn) [Example 21, (2R,3S) N1-[1,3-dihydro-1-methyl-2-oxo-5-(N-methyl-N-phenylamino)-2H-1,4-benzodiazepin-3-yl]-2-(2-methylpropyl)-3-allyl-butanediamide] | 266.6 to 267.8 °C
CC(C)C[C@@H](C(=O)N[C@H]1N=C(c2ccccc2)c2ccccc2N(C)C1=O)[C@@H](CC1CC1)C(N)=O (as salt: succinate) | 146 to 148 °C
C=CC[C@H](C(N)=O)[C@@H](CC(C)C)C(=O)NC1C(=O)N(C)c2ccccc2-c2ccccc21 (stereo partly drawn) [Example 47, (2R,3S) N1-[6,7-dihydro-5-methyl-6-oxo-5H-dibenz[b,d]azepin-7-yl]-2-(2-methylpropyl)-3-allyl-butanediamide] | 137 to 145 °C

Continued, values first:

melting point | Compound
145 to 151 °C | C=CC[C@H](C(N)=O)[C@@H](CC(C)C)C(=O)NC1N=C(N2CCOCC2)c2ccccc2N(C)C1=O (stereo partly drawn) [Example 19, (2R,3S) N1-[1,3-dihydro-1-methyl-2-oxo-5-(N-morpholino)-2H-1,4-benzodiazepin-3-yl]-2-(2-methylpropyl)-3-allyl-butanediamide]
251 to 253 °C | C=CC[C@H](C(N)=O)[C@@H](CC(C)C)C(=O)NC1N=C(c2cccnc2)c2ccccc2N(C)C1=O (stereo partly shown)
230 to 232 °C | C=CC[C@H](C(N)=O)[C@@H](CC(C)C)C(=O)NC1N=C(N(C)C)c2ccccc2N(C)C1=O (stereo partly drawn) [Example 20, (2R,3S) N1-[1,3-dihydro-1-methyl-2-oxo-5-(dimethylamino)-2H-1,4-benzodiazepin-3-yl]-2-(2-methylpropyl)-3-allyl-butanediamide]
232 to 237 °C | C=CC[C@H](C(N)=O)[C@@H](CC(C)C)C(=O)NC1N=C(N2CCCCCC2)c2ccccc2N(C)C1=O (stereo partly drawn) [Example 23, (2R,3S) N1-[1,3-dihydro-1-methyl-2-oxo-5-(N-homopiperidinyl)-2H-1,4-benzodiazepin-3-yl]-2-(2-methylpropyl)-3-allyl-butanediamide]
231 to 238 °C | C=CC[C@H](C(N)=O)[C@@H](CC(C)C)C(=O)NC1N=C(N2CCCCC2)c2ccccc2N(C)C1=O (stereo partly drawn) [Example 22, (2R,3S) N1-[1,3-dihydro-1-methyl-2-oxo-5-(N-piperidinyl)-2H-1,4-benzodiazepin-3-yl]-2-(2-methylpropyl)-3-allyl-butanediamide]
225 to 230 °C | C=CC[C@H](C(N)=O)[C@@H](CC(C)C)C(=O)NC1N=C(c2cccc(OC)c2)c2ccccc2N(C)C1=O (stereo partly shown)
